Patent US9688733B2, “Method for treating spinal cord injury using HMGB1 fragment” (GENOMIX CO., LTD, priority 2012, dated 2017)
Entries after “also recorded” stand apart in the source; their conditions may differ.

Tests used:
[1] = system: mouse bone marrow mesenchymal stem cell line (MSC-1 cell); test: Migration-promoting activity in chemotaxis chamber; type: cell-based; conditions: MSC-1 cells; for migration-promoting activity: 100 μg/ml in lower chamber, positive control full-length mouse HMGB1 (1-215(HEK)), FIG. 1A
Experimental: The peptides listed below were custom synthesized using the solid phase method by Medical & Biological Laboratories (MBL). The peptides were synthesized based on the mouse HMGB1 sequence. Amino acid sequences from positions 1 to 169 of mouse HMGB1 and human HMGB1 are identical, i.e., shares 100% sequence homology.
the full-length mouse HMGB1 produced in HEK293 (1-215(HEK)) as a positive control were adjusted to 100 μg/ml and placed in the lower chamber of a chemotaxis chamber to assess the migration-promoting activity on mouse bone marrow mesenchymal stem cell line (MSC-1 cell; produced by Osaka University, Tamai et al., (Tamai et al., Proc Natl Acad Sci USA., 108(16): 6609-6614, 2011)). (Results)
As positive controls, centrifuged supernatant of the skin of a one-day-old mouse (one individual) incubated in PBS at 4° C. for 12 hours, and the full-length mouse HMGB1 produced in HEK293 (1-215(HEK)) were used. Cells of a bone marrow mesenchymal stem cell line (MSC-1) were placed in the upper chamber of a chemotaxis chamber, and the protein and synthetic peptides were added at a concentration of 5 μM or 10 μM to the lower chamber of the chemotaxis chamber. The migration assay was carried out by the same method as described above.

[2] = system: C57BL6/J mice with traumatic injury of the spinal cord; test: Neurologic symptoms (Basso Mouse Scale score) in mice with traumatic injury of the spinal cord; type: in vivo; conditions: five daily administrations
Excerpt: (§1) Seven-week-old female C57BL6/J mice were used as test animals. After the mice were anesthetized by isoflurane inhalation, skin incision was made along the dorsal midline, and the vertebral arch of the ninth thoracic vertebra was exposed and excised. Dura mater was exposed at the same site, and the spinal cord was held epidurally for three seconds using a microneedle holder to produce a traumatic injury of the spinal cord. After generation of injury of the spinal cord, the skin was sutured. […] The assay reagent was prepared by diluting 100 μg of an HMGB1 fragment (amino acid sequence: amino acids of positions 11 to 44; synthesized peptide produced at MBL) in 200 μL of Dulbecco's PBS (D-PBS). 200 μL of D-PBS was used for the negative control. On the next day of operation, the first administration was performed through the tail vein, and this was followed by a total of five daily administrations. Neurologic symptoms were assessed using the Basso Mouse Scale (BMS) score on Days 1, 3, 7, 10, 14, 17, and 21 post operation.
Seven-week-old female C57BL6/J mice were used as test animals. After the mice were anesthetized by isoflurane inhalation, skin incision was made along the dorsal midline, and the vertebral arch of the ninth thoracic vertebra was exposed and excised. Dura mater was exposed at the same site, and the spinal cord was held epidurally for three seconds using a microneedle holder to produce a traumatic injury of the spinal cord. After production of injury of the spinal cord, the skin was sutured. […] An HMGB1 fragment (amino acid sequence: the amino acids of positions 11 to 44; synthetic peptide produced at MBL) was prepared by diluting 100 μg of the fragment in 200 μL of Dulbecco's PBS (D-PBS). The full-length HMGB1 protein was produced by expressing it in HEK293 as reported previously, and the purified HMGB1 (100 μg) was dissolved in 200 μL of D-PBS. 200 μL of D-PBS was used for the negative control. On the next day of operation, the first administration was performed through the tail vein, and this was followed by a total of five daily administrations. Neurologic symptoms were assessed using the BMS score on Days 1, 3, 7, and 14 post operation.
Seven-week-old female C57BL6/J mice were used as test animals. The mice were anesthetized by isoflurane inhalation, skin incision was made along the dorsal midline, and the vertebral arch of the ninth thoracic vertebra was exposed and excised. Dura mater was exposed at the same site, and the spinal cord was held epidurally for three seconds using a microneedle holder to produce a traumatic injury of the spinal cord. After production of injury of the spinal cord, the skin was sutured. […] HMGB1 fragments (amino acid sequences: amino acids from positions 11 to 44 and amino acids from positions 1 to 44; synthetic peptides produced at MBL) were prepared by diluting 100 μg of the fragment in 200 μL of D-PBS. 200 μL of D-PBS was used for the negative control. On the next day of operation, the first administration was performed via the tail vein, and this was followed by a total of five daily administrations. Neurologic symptoms were assessed using the BMS score on Days 1, 3, 7, 10, 14, 17, 21, and 28 post operation.

[3] = system: C57BL6/J mice with traumatic injury of the spinal cord; test: HE staining of the damaged region of the spinal cord; type: in vivo, mouse; conditions: Example 2, 100 μg tail vein, five daily administrations, vs negative control (PBS), FIG. 2B
Excerpt: as §1

synthetic peptide (11-25): synthetic peptide consisting of the amino acid sequence from positions 11 to 25 of HMGB1 (GKMSSYAFFVQTCRE; UniProt P63158 11-25, looked up, fragment)
migration-promoting activity [1]: found to have the activity

synthetic peptide (1-34): synthetic peptide consisting of the amino acid sequence from positions 1 to 34 of HMGB1 (MGKGDPKKPRGKMSSYAFFVQTCREEHKKKHPDA; UniProt P63158 1-34, looked up, fragment)
migration-promoting activity [1]: activity comparable to or higher than that of the positive control

synthetic peptide (11-30): synthetic peptide consisting of the amino acid sequence from positions 11 to 30 of HMGB1 (GKMSSYAFFVQTCREEHKKK; UniProt P63158 11-30, looked up, fragment)
migration-promoting activity [1]: activity comparable to or higher than that of the positive control

synthetic peptide (11-34): synthetic peptide consisting of the amino acid sequence from positions 11 to 34 of HMGB1 (GKMSSYAFFVQTCREEHKKKHPDA; UniProt P63158 11-34, looked up, fragment)
migration-promoting activity [1]: activity comparable to or higher than that of the positive control

synthetic peptide (1-44): peptide consisting of the amino acids at positions 1 to 44 of the HMGB1 protein (SEQ ID NO: 5) (MGKGDPKKPRGKMSSYAFFVQTCREEHKKKHPDASVNFSEFSKK; Synthesized peptide from the HMGB1 protein)
migration-promoting activity [1]: activity comparable to or higher than that of the positive control
improvement of neurologic symptoms (BMS score) ([2]; Example 4, 100 μg tail vein, Days 1-28 post operation, vs PBS, FIG. 4, listed as 1-44): therapeutic effects were observed; also recorded: effective in treating injury of the spinal cord
improvement of neurologic symptoms (BMS score) ([2]; Example 4, 100 μg tail vein, Days 1-28 post operation, vs PBS, FIG. 4, listed as HMGB1 fragment consisting of the amino acids from positions 1 to 44): comparable therapeutic effects

synthetic peptide (11-44): synthetic peptide consisting of the amino acid sequence from positions 11 to 44 of HMGB1 (SEQ ID NO: 4) (GKMSSYAFFVQTCREEHKKKHPDASVNFSEFSKK; Synthesized peptide from the HMGB1 protein)
size of damaged region of the spinal cord (HE staining) ([3]; listed as HMGB1 fragment (11-44)): size of the area of injury of the spinal cord decreased
size of damaged region of the spinal cord (HE staining) ([3]; listed as HMGB1 fragment (11-44 peptide)): reduced
migration-promoting activity [1]: activity comparable to or higher than that of the positive control
improvement of neurologic symptoms (BMS score) ([2]; Example 2, 100 μg in 200 μL D-PBS, tail vein, Days 1-21 post operation, vs PBS, FIG. 2A, listed as HMGB1 fragment): significant improvement of neurologic symptoms was observed from Day 3 post operation; also recorded: remarkable improvement of symptoms was observed on Days 3, 7, 14, and 17 post operation
improvement of neurologic symptoms (BMS score) ([2]; Example 2, 100 μg in 200 μL D-PBS, tail vein, Days 1-21 post operation, vs PBS, FIG. 2A, listed as HMGB1 fragment (11-44)): significant effects of improving neurologic symptoms were observed
improvement of neurologic symptoms (BMS score) ([2]; Example 3, 100 μg tail vein, Days 1, 3, 7, 14, fragment vs full-length vs PBS, FIG. 3, listed as HMGB1 fragment (amino acids at positions 11-44)): most effective; also recorded: much more satisfactory improvement of the therapeutic effect
improvement of neurologic symptoms (BMS score) ([2]; Example 4, 100 μg tail vein, Days 1-28 post operation, vs PBS, FIG. 4): therapeutic effects were observed; also recorded: effective in treating injury of the spinal cord
improvement of neurologic symptoms (BMS score) ([2]; Example 4, 100 μg tail vein, Days 1-28 post operation, vs PBS, FIG. 4, listed as HMGB1 fragment consisting of the amino acids from positions 11 to 44): comparable therapeutic effects

synthetic peptide (17-25): synthetic peptide consisting of the amino acid sequence from positions 17 to 25 of HMGB1 (SEQ ID NO: 3) (AFFVQTCRE; Synthesized peptide from the HMGB1 protein)
migration-stimulating activity ([1]; 5 μM or 10 μM in lower chamber, FIG. 1B): smallest fragment with migration-stimulating activity; also recorded: smallest fragment that has the migration-stimulating activity

B1: full-length HMGB1: full-length HMGB1 protein produced by expressing it in HEK293, purified; positive control / comparator (protein, UniProt P63158 1-215, looked up)
chain: MGKGDPKKPRGKMSSYAFFVQTCREEHKKKHPDASVNFSEFSKKCSERWKTMSAKEKGKFEDMAKADKARYEREMKTYIPPKGETKKKFKDPNAPKRPPSAFFLFCSEYRPKIKGEHPGLSIGDVAKKLGEMWNNTAADDKQPYEKKAAKLKEKYEKDIAAYRAKGKPDAAKKGVVKAEKSKKKKEEEDDEEDEEDEEEEEEEEDEDEEEDDDDE
modifications: full-length
notes: full-length HMGB1 protein produced by expressing it in HEK293, purified; positive control / comparator
improvement of neurologic symptoms (BMS score) ([2]; Example 3, 100 μg tail vein, Days 1, 3, 7, 14, fragment vs full-length vs PBS, FIG. 3): intermediate between the effect in the HMGB1 fragment (amino acids at positions 11-44)-administered group and that in the negative control group
improvement of neurologic symptoms (BMS score) ([2]; Example 3, 100 μg tail vein, Days 1, 3, 7, 14, fragment vs full-length vs PBS, FIG. 3, listed as HMGB1 (full-length)): therapeutic effect was observed; also recorded: not as effective as that in the HMGB1 fragment
